Assay type in all cases: in vivo
Experiment [1] relates to Abuthilon. As to the kind of experiment: Pre-emergence test/greenhouse. The settings on record: Table B, after three weeks. The protocol:
(§1) To produce a suitable preparation of active compound, 1 part by weight of active compound is mixed with the stated amount of solvent, the stated amount of emulsifier is added and the concentrate is diluted with water to the desired concentration.
(§2) Seeds of the test plants are sown in normal soil and, after 24 hours, watered with the preparation of active compound. It is expedient to keep constant the amount of water per unit area. The concentration of the active compound in the preparation is of no importance, only the amount of active compound applied per unit area being decisive. After three weeks, the degree of damage to the plants is rated in % damage in comparison to the development of the untreated control. The figures denote:
(§3) 0%=no action (like untreated control)

Experiment [2] concerns Amaranthus. The experiment in a line: Pre-emergence test/greenhouse. The following applies: after three weeks. How it is done:
as §1, §2, §3

In another experiment the test system is Barley. The experiment in a line: Pre-emergence test/greenhouse. The settings on record: Table A, 125 g/ha, after three weeks. The protocol:
as §1, §2, §3

Experiment [3] has as its system Chenopodium. As to the kind of experiment: Pre-emergence test/greenhouse. The following applies: after three weeks. The protocol: as §1, §2, §3
Experiment [4] has as its system Maize. As to the kind of experiment: Pre-emergence test/greenhouse. The settings on record: after three weeks. How it is done:
as §1, §2, §3

Another experiment has as its system Matricaria. As to the kind of experiment: Pre-emergence test/greenhouse. The following applies: after three weeks. How it is done: as §1, §2, §3
The subject of a further experiment is Portulaca. As to the kind of experiment: Pre-emergence test/greenhouse. The settings on record: after three weeks. The protocol: as §1, §2, §3
Experiment [5] relates to Solanum. The experiment in a line: Pre-emergence test/greenhouse. The settings on record: after three weeks. The protocol: as §1, §2, §3
For experiment [6], the system named is Wheat. The experiment in a line: Pre-emergence test/greenhouse. The following applies: Table B, after three weeks. The protocol:
as §1, §2, §3

Experiment [7] has as its system Abuthilon. The experiment in a line: Post-emergence test/greenhouse. The following applies: Table C, after three weeks. The protocol:
as §1
(§4) Test plants which have a height of 5-15 cm are sprayed with the preparation of active compound in such a way as to apply the particular amounts of active compound desired per unit area. After three weeks, the degree of damage to the plants is rated in % damage in comparison to the development of the untreated control.
(§5) 0%=no action (like intreated control)

For experiment [8], the system named is Amaranthus. As to the kind of experiment: Post-emergence test/greenhouse. The settings on record: Table C, after three weeks. The protocol: as §1, §4, §5
Experiment [9] has as its system Chenopodium. The experiment in a line: Post-emergence test/greenhouse. The settings on record: Table C, after three weeks. How it is done: as §1, §4, §5
Experiment [10] has as its system Maize. The experiment in a line: Post-emergence test/greenhouse. The following applies: Table C, after three weeks. How it is done: as §1, §4, §5
For experiment [11], the system named is Solanum. As to the kind of experiment: Post-emergence test/greenhouse. The settings on record: Table C, after three weeks. The protocol:
as §1, §4, §5

Another experiment has as its system Veronica. As to the kind of experiment: Post-emergence test/greenhouse. The following applies: Table C, after three weeks. The protocol:
as §1, §4, §5

Experiment [12] concerns Wheat. The experiment in a line: Post-emergence test/greenhouse. The following applies: Table C, after three weeks. How it is done:
as §1, §4, §5

Consider `CCS(=O)(=O)Nc1cc(-n2nc(C(F)F)n(C)c2=S)c(F)cc1C(N)=S` [Example 3, 2-(2-fluoro-4-thiocarbamoyl-5-ethylsulphonylaminophenyl)-4-methyl-5-difluoromethyl-2,4-dihydro-3H-1,2,4-triazole-3-thione], for which the “degree of damage, Abuthilon” value in the experiment on Abuthilon [1] (60 g/ha) and in the experiment with Abuthilon [7] (30 g/ha) was 100% throughout. The “degree of damage, Amaranthus” value with Amaranthus [2] (Table A, 125 g/ha) is on record as 100%; in the experiment with Amaranthus [2] (Table B, 60 g/ha) it was 100%; with Amaranthus [8] (30 g/ha), 100%. Moreover, the “degree of damage, Barley” value with Barley came out at 0%. Also, the “degree of damage, Chenopodium” value with Chenopodium [3] (Table A, 125 g/ha) is 100%; in the experiment on Chenopodium [3] (Table B, 60 g/ha), 100%; in the experiment on Chenopodium [9] (30 g/ha), 100%. In addition, the “degree of damage, Maize” value in the experiment with Maize [4] (Table A, 125 g/ha) was 0%; in the experiment with Maize [4] (Table B, 60 g/ha), 0%; in the experiment on Maize [10] (30 g/ha), 30%. Moreover, the “degree of damage, Matricaria” value in the experiment with Matricaria (Table A, 125 g/ha) was determined as 100%; with Matricaria (Table B, 60 g/ha), 100%. Besides, the “degree of damage, Portulaca” value with Portulaca (Table A, 125 g/ha) worked out at 100%; in the experiment on Portulaca (Table B, 60 g/ha) it was 100%. Moreover, the “degree of damage, Solanum” value worked out at 100% in the experiment with Solanum [5] (Table A, 125 g/ha); 100% in the experiment with Solanum [5] (Table B, 60 g/ha); 100% with Solanum [11] (30 g/ha). For the same compound, the “degree of damage, Wheat” value in the experiment on Wheat [6] (60 g/ha) is on record as 0%; in the experiment with Wheat [12] (30 g/ha) it was 10%. Further, in the experiment with Veronica (30 g/ha), the “degree of damage, Veronica” value is on record as 100%.
On to `C#CC(C)Oc1cc(-n2nc(C(F)F)n(C)c2=S)c(F)cc1C(N)=S` (stereo not drawn) [Example 6], for which the “degree of damage, Abuthilon” value in the experiment with Abuthilon [1] (60 g/ha) and in the experiment on Abuthilon [7] (8 g/ha) was 100% each time. The “degree of damage, Amaranthus” value in the experiment with Amaranthus [2] (Table A, 125 g/ha) is 100%; in the experiment on Amaranthus [2] (Table B, 60 g/ha), 100%; with Amaranthus [8] (8 g/ha) it was 100%. Further, in the experiment with Barley, the “degree of damage, Barley” value was found to be 0%. The “degree of damage, Chenopodium” value is 100% in the experiment on Chenopodium [3] (Table A, 125 g/ha); 100% in the experiment with Chenopodium [3] (Table B, 60 g/ha); 100% in the experiment with Chenopodium [9] (8 g/ha). Besides, the “degree of damage, Maize” value with Maize [4] (Table A, 125 g/ha) amounted to 30%; in the experiment with Maize [4] (Table B, 60 g/ha), 30%; with Maize [10] (8 g/ha) it was 50%. For the same compound, the “degree of damage, Matricaria” value in the experiment with Matricaria (Table A, 125 g/ha) came to 95%; with Matricaria (Table B, 60 g/ha), 100%. Also, the “degree of damage, Portulaca” value in the experiment with Portulaca (Table A, 125 g/ha) is given as 100%; with Portulaca (Table B, 60 g/ha) it was 100%. Besides, the “degree of damage, Solanum” value in the experiment with Solanum [5] (Table A, 125 g/ha) came to 100%; in the experiment with Solanum [5] (Table B, 60 g/ha), 95%; in the experiment with Solanum [11] (8 g/ha), 100%. For the same compound, the figures for the “degree of damage, Wheat” value in the experiment on Wheat [6] (60 g/ha) and in the experiment on Wheat [12] (8 g/ha) were 20% and 30%, respectively. Also, in the experiment with Veronica (8 g/ha), the “degree of damage, Veronica” value came out at 95%.
For `CCn1c(C(F)(F)F)nn(-c2cc(NS(=O)(=O)CC)c(C(N)=S)cc2F)c1=O` [Example 5], the “degree of damage, Abuthilon” value in the experiment on Abuthilon [1] (125 g/ha) was 10%; in the experiment with Abuthilon [7] (15 g/ha), 100%. The “degree of damage, Amaranthus” value in the experiment with Amaranthus [2] (Table A, 125 g/ha) came to 100%; with Amaranthus [2] (Table B, 125 g/ha), 100%; in the experiment on Amaranthus [8] (15 g/ha), 100%. In the experiment with Barley, the “degree of damage, Barley” value stood at 0%. Further, the “degree of damage, Chenopodium” value in the experiment with Chenopodium [3] (Table A, 125 g/ha) is listed as 100%; in the experiment on Chenopodium [3] (Table B, 125 g/ha), 100%; in the experiment with Chenopodium [9] (15 g/ha) it was 100%. The “degree of damage, Maize” value was found to be 0% in the experiment with Maize [4] (Table A, 125 g/ha); 0% in the experiment on Maize [4] (Table B, 125 g/ha); 20% in the experiment with Maize [10] (15 g/ha). Besides, the “degree of damage, Matricaria” value is reported as 90% with Matricaria (Table A, 125 g/ha) and 70% with Matricaria (Table B, 125 g/ha). Moreover, the “degree of damage, Portulaca” value with Portulaca (Table A, 125 g/ha) was 90%; in the experiment with Portulaca (Table B, 125 g/ha) it was 90%. In addition, the “degree of damage, Solanum” value in the experiment with Solanum [5] (Table A, 125 g/ha) is 100%; in the experiment on Solanum [5] (Table B, 125 g/ha), 100%; with Solanum [11] (15 g/ha), 100%. Also, the “degree of damage, Wheat” value in the experiment on Wheat [6] (125 g/ha) stood at 0%; in the experiment on Wheat [12] (15 g/ha), 10%. In the experiment with Veronica (15 g/ha), the “degree of damage, Veronica” value was found to be 100%.

For the origin of these results see patent US6451736B1, “Substituted aromatic thiocarboxylic acid amides and their use as herbicides” (Bayer Aktiengesellschaft, priority 1994, dated 2002).
